US10364263B2, “Cyclic phosphates and cyclic phosphoramidates for the treatment of neurologic disorders” (Retrophin, Inc., priority 2015, dated 2019)
Where two headings read alike, the source gives them in different places.

What was measured:
[1] = test system: PANK2 silenced human neuroblastoma IMR32 cells (PANK2−/−); assay: Coenzyme A assay in PANK2 silenced cells (LC-MS quantification of free CoA); format: cell-based; settings: compound added twice (24 h + 24 h), relative to 0.1% DMSO controls
How it was run: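 PANK2 shRNA-silenced IMR32 neuroblastoma cells were treated with compound (0.1% DMSO) for 24 h, then re-dosed with fresh compound for a further 24 h at 37 °C. TFA extracts of 1×10^6 cells were assayed for free CoA by LC-MS/MS (MRM 768.1→261.6/136.1). Results are given as fold change versus DMSO controls.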

[2] = Stability in mouse hepatocytes; format: in vitro ADME
[3] = t1/2, Mouse Hepatocytes, Diastereoisomer A
[4] = t1/2, Mouse Hepatocytes, Diastereoisomer B
[5] = Diastereoisomer A (upfield shift in 31P NMR), 5 μM, 1 million cells/ml, 37° C., mouse hepatocytes, read-out: t1/2, Mouse Hepatocytes, Diastereoisomer A (converted)
[6] = Diastereoisomer B, 5 μM, 1 million cells/ml, 37° C., mouse hepatocytes, read-out: t1/2, Mouse Hepatocytes, Diastereoisomer B (converted)

| SMILES | half-life at 5 µM [2, 3] [min] | half-life at 5 µM [2, 4] [min] | PANK2−/− CoA (Fold Increase): fold increase in Coenzyme A (CoA) levels relative to controls [1] [Fold Increase] | half-life at 5 µM [2, 5] [min] | half-life at 5 µM [2, 6] [min] |
| --- | --- | --- | --- | --- | --- |
| COC(=O)CCNC(=O)[C@@H]1OP(=O)(OCOC(=O)c2cncs2)OCC1(C)C (stereo partly drawn) [Compound No. 70, (((4R)-4-((3-methoxy-3-oxopropyl)carbamoyl)-5,5-dimethyl-2-oxido-1,3,2-dioxaphosphinan-2-yl)oxy)methyl thiazole-5-carboxylate] | – | – | 87.75 | – | – |
| COC(=O)CCNC(=O)[C@@H]1OP(=O)(OCOC(=O)c2ccccc2)OCC1(C)C (stereo partly drawn) [Compound No. 64, (((4R)-4-((3-methoxy-3-oxopropyl)carbamoyl)-5,5-dimethyl-2-oxido-1,3,2-dioxaphosphinan-2-yl)oxy)methyl benzoate] | < 15 | < 15 | 278.1 | – | – |
| COC(=O)CCNC(=O)[C@@H]1OP(=O)(OCCSC(=O)C(C)(C)C)OCC1(C)C (stereo partly drawn) [Compound No. 2-133, Methyl 3-((4R)-5,5-dimethyl-2-oxido-2-(2-(pivaloylthio)ethoxy)-1,3,2-dioxaphosphinane-4-carboxamido)propanoate] | < 15 | < 15 | 89.53 | – | – |
| COC(=O)CCNC(=O)[C@@H]1OP(=O)(N[C@@H](C)C(=O)OC)OCC1(C)C (stereo partly drawn) [compound 5, methyl 3-((4R)-2-(((S)-1-methoxy-1-oxopropan-2-yl)amino)-5,5-dimethyl-2-oxido-1,3,2-dioxaphosphinane-4-carboxamido)propanoate] | – | – | 1.15 | 22.8 | 18 |
| COC(=O)CCNC(=O)[C@@H]1OP(=O)(N[C@H](C)C(=O)OC)OCC1(C)C (stereo partly drawn) [compound 16, methyl 3-((4R)-2-(((R)-1-methoxy-1-oxopropan-2-yl)amino)-5,5-dimethyl-2-oxido-1,3,2-dioxaphosphinane-4-carboxamido)propanoate] | – | – | 1.21 | 43.2 | 15.6 |
| COC(=O)CCNC(=O)[C@@H]1OP(=O)(NCCN2CCCC2)OCC1(C)C (stereo partly drawn) [compound 109, methyl 3-((4R)-5,5-dimethyl-2-oxido-2-((2-(pyrrolidin-1-yl)ethyl)amino)-1,3,2-dioxaphosphinane-4-carboxamido)propanoate] | – | – | 1.87 | 203 | – |
| COC(=O)CCNC(=O)[C@@H]1OP(=O)(N[C@@H](C)C(=O)OCc2ccccc2)OCC1(C)C (stereo partly drawn) [Compound No. 11, Benzyl ((4R)-4-((3-methoxy-3-oxopropyl)carbamoyl)-5,5-dimethyl-2-oxido-1,3,2-dioxaphosphinan-2-yl)-L-alaninate] | < 15 | < 15 | 0.99 | – | – |
| COC(=O)CCNC(=O)[C@@H]1OP(=O)(N[C@@H](C)C(=O)OCCc2ccccc2)OCC1(C)C (stereo partly drawn) [Compound No. 2, Methyl 3-((4R)-5,5-dimethyl-2-oxido-2-(((S)-1-oxo-1-phenethoxypropan-2-yl)amino)-1,3,2-dioxaphosphinane-4-carboxamido)propanoate] | 23.4 | 26.4 | 6.80 | – | – |

More lines, main results first:

| half-life at 5 µM [2, 3] [min] | half-life at 5 µM [2, 4] [min] | SMILES | PANK2−/− CoA (Fold Increase): fold increase in Coenzyme A (CoA) levels relative to controls [1] [Fold Increase] | half-life at 5 µM [2, 5] [min] | half-life at 5 µM [2, 6] [min] |
| --- | --- | --- | --- | --- | --- |
| < 15 | < 15 | COC(=O)CCNC(=O)[C@@H]1OP(=O)(NCCC(=O)OCc2ccccc2)OCC1(C)C (stereo partly drawn) [compound 117, benzyl 3-(((4R)-4-((3-methoxy-3-oxopropyl)carbamoyl)-5,5-dimethyl-2-oxido-1,3,2-dioxaphosphinan-2-yl)amino)propanoate] | 1.06 | – | – |
| < 15 | < 15 | COC(=O)[C@H](C)NP1(=O)OCC(C)(C)[C@H](C(=O)NCCC(=O)OCc2ccncc2)O1 (stereo partly drawn) [compound 20, (2S)-methyl 2-(((4R)-5,5-dimethyl-2-oxido-4-((3-oxo-3-(pyridin-4-ylmethoxy)propyl)carbamoyl)-1,3,2-dioxaphosphinan-2-yl)amino)propanoate] | 0.9 | – | – |
| 15 | – | CC1(C)COP(=O)(O)O[C@H]1C(=O)NCCC(=O)O [compound 108, 3-((4R)-2-hydroxy-5,5-dimethyl-2-oxido-1,3,2-dioxaphosphinane-4-carboxamido)propanoic acid] | 1.07 | – | – |
| < 15 | < 15 | COC(=O)CCNC(=O)[C@@H]1OP(=O)(N[C@@H](C)C(=O)OCc2cc(C)cc(C)c2)OCC1(C)C (stereo partly drawn) [compound 3, (2S)-3,5-dimethylbenzyl 2-(((4R)-4-((3-methoxy-3-oxopropyl)carbamoyl)-5,5-dimethyl-2-oxido-1,3,2-dioxaphosphinan-2-yl)amino)propanoate] | 1.65 | – | – |
| < 15 | < 15 | COC(=O)CCNC(=O)[C@@H]1OP(=O)(N[C@@H](Cc2ccccc2)C(=O)OCc2ccccc2)OCC1(C)C (stereo partly drawn) [compound 10, benzyl ((4R)-4-((3-methoxy-3-oxopropyl)carbamoyl)-5,5-dimethyl-2-oxido-1,3,2-dioxaphosphinan-2-yl)-L-phenylalaninate] | 1.05 | – | – |
| < 15 | < 15 | COC(=O)CCNC(=O)[C@@H]1OP(=O)(N[C@@H](C)C(=O)OCc2cccnc2)OCC1(C)C (stereo partly drawn) [compound 24, methyl 3-((4R)-5,5-dimethyl-2-oxido-2-(((S)-1-oxo-1-(pyridin-3-ylmethoxy)propan-2-yl)amino)-1,3,2-dioxaphosphinane-4-carboxamido)propanoate] | 0.92 | – | – |
| < 15 | < 15 | COC(=O)CCNC(=O)[C@@H]1OP(=O)(OCOC(=O)C(C)(C)C)OCC1(C)C (stereo partly drawn) [Compound No. 65, (((4R)-4-((3-methoxy-3-oxopropyl)carbamoyl)-5,5-dimethyl-2-oxido-1,3,2-dioxaphosphinan-2-yl)oxy)methyl pivalate] | 222.6 | – | – |
| < 15 | < 15 | COC(=O)CCNC(=O)[C@@H]1OP(=O)(OCOC(=O)OC(C)C)OCC1(C)C (stereo partly drawn) [Compound No. 69, Methyl 3-((4R)-2-(((isopropoxycarbonyl)oxy)methoxy)-5,5-dimethyl-2-oxido-1,3,2-dioxaphosphinane-4-carboxamido)propanoate] | 181.1 | – | – |
| < 15 | < 15 | CCc1cc(C(=O)OCOP2(=O)OCC(C)(C)[C@H](C(=O)NCCC(=O)OC)O2)n(C)n1 (stereo partly drawn) [Compound No. 84, (((4R)-4-((3-methoxy-3-oxopropyl)carbamoyl)-5,5-dimethyl-2-oxido-1,3,2-dioxaphosphinan-2-yl)oxy)methyl 3-ethyl-1-methyl-1H-pyrazole-5-carboxylate] | 325.47 | – | – |
| 18 | – | CC(C)(C)C(=O)OCO[P@@]1(=O)OCC(C)(C)[C@H](C(=O)NCCC(=O)O)O1 [Compound No. 91, 3-((2S,4R)-5,5-dimethyl-2-oxido-2-((pivaloyloxy)methoxy)-1,3,2-dioxaphosphinane-4-carboxamido)propanoic acid] | 4.03 | – | – |
